Test results from US6479531B1, “Gastrin and cholecystokinin receptor ligands” (James Black Foundation Limited, priority 1998, dated 2002).
Where a name gives a salt, the structure may show the parent alone.

These compounds were tested against T1, gastrin receptor (Rattus norvegicus, UniProt P30553) (assay: gastrin antagonist activity in immature rat stomach assay (pentagastrin dose-response, acid secretion)). Conditions: isolated immature rat stomach, cumulative pentagastrin dose-response curves.
T1 construct: The stomach was excised and flushed with ca. 1 ml of unbuffered physiological saline solution; from tissue; host or cells: isolated whole stomach of immature rats (ca. 21 days old)
T1 sequence (P30553 1-452): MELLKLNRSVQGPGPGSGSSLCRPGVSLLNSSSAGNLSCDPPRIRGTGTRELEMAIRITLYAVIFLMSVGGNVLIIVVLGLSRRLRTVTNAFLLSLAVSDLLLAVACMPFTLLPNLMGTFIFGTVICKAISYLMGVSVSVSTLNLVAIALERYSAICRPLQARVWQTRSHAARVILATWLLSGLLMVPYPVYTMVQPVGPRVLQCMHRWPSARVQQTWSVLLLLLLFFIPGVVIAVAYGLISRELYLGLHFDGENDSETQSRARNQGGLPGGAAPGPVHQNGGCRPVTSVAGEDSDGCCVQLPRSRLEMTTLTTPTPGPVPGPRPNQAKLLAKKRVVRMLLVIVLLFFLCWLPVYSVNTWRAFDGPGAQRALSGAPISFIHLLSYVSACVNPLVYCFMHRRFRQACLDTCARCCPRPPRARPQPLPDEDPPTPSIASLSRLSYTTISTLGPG
Procedure: The compounds of the examples were also tested for gastrin antagonist activity in an immature rat stomach assay. The procedure was as follows:
The oesophagus of immature rats (33-50 g, ca. 21 days old) was ligated at the level of the cardiac sphincter and the duodenal sphincter was cannulated. The stomach was excised and flushed with ca. 1 ml of unbuffered physiological saline solution. The fundus was punctured and cannulated. A further 4-5 ml of unbuffered solution was flushed through the stomach to ensure the preparation was not leaking. The stomach was lowered into a jacketed organ bath containing 40 ml of buffered solution containing 3×10^−8 M 5-methylfurmethide, maintained at 37° and gassed vigorously with 95% O2/5% CO2. The stomach was continuously perfused at a rate of 1 ml min^−1 with unbuffered solution gassed with 100% O2 with the perfusate passing over an internally referenced pH-electrode fixed 12 cm above the stomach.
After 120 min of stabilisation the drugs were added directly to the serosal solution in the organ bath and after a further 60 min cumulative pentagastrin dose-response curves were started. Changes in acid secretion were monitored and the curves analysed according to Black et al., Br. J. Pharmacol., 1985, 86, 581.

| Compound | Gastrin pKb |
| --- | --- |
| O=C(O)Cc1cccc(NC(=O)c2nc(C3CC4CCC3C4)[nH]c2CCC23CC4CC(CC(C4)C2)C3)c1 (racemic) [Example 210, (±)-exo-(3-{[5-(2-Adamantan-1-yl-ethyl)-2-bicyclo[2.2.1]hept-2-yl-1H-imidazole-4-carbonyl]-amino}-phenyl)-acetic Acid] | 6.89 |
| O=C(O)c1cccc(NC(=O)c2nc([C@@H]3CC4CC[C@@H]3C4)[nH]c2COC23CC4CC(CC(C4)C2)C3)c1 [Example 292, endo-3-{[5-(Adamantan-1-yloxymethyl)-2-((1R,2R)-bicyclo[2.2.1]hept-2-yl)-1H-imidazole-4-carbonyl]-amino}-benzoic Acid] | 8.57 |
| (±)-5-{[5-(2-Adamantan-1-yl-ethyl)-2-[1-methyl-piperidin-2-yl])-1H-imidazole-4-carbonyl]-amino}-2-methyl-benzoic Acid [Example 141] | 7.21 |

Same assay, conditions: isolated immature rat stomach, cumulative pentagastrin dose-response curves, read-out: Gastrin pKb (converted)

| Kb [nM] | Compound |
| --- | --- |
| 75.9 | O=C(O)CNC(=O)c1cccc(NC(=O)c2nc(C3CCCCC3)[nH]c2CCC23CC4CC(CC(C4)C2)C3)c1 [Example 263, (3-{[5-(2-Adamantan-1-yl-ethyl)-2-cyclohexyl-1H-imidazole-4-carbonyl]-amino}-benzoylamino)-acetic Acid] |
| 58.9 | N#Cc1ccccc1-c1nc(C(=O)Nc2cccc(C(=O)O)c2)c(COC23CC4CC(CC(C4)C2)C3)[nH]1 [Example 306, 3-{[5-(Adamantan-1-yloxymethyl)-2-(2-cyano-phenyl)-1H-imidazole-4-carbonyl]-amino}-benzoic Acid] |
| 186 | C[C@H](NC(=O)c1cccc(NC(=O)c2nc(C3CCCCC3)[nH]c2CCC23CC4CC(CC(C4)C2)C3)c1)C(=O)O [Example 272, (S)-2-(3-{[5-(2-Adamantan-1-yl-ethyl)-2-cyclohexyl-1H-imidazole-4-carbonyl]-amino}-benzoylamino)-propionic Acid] |
| 1820 | Cc1ccccc1-c1nc(CCc2cccc(C(=O)O)c2)c(CCC23CC4CC(CC(C4)C2)C3)[nH]1 [Example 280, 3-{2-[5-(2-Adamantan-1-yl-ethyl)-2-o-tolyl-1H-imidazol-4-yl]-ethyl}-benzoic Acid] |
| 871 | CC(=O)NC(C(=O)O)c1cccc(NC(=O)c2nc(C3CCCCC3)[nH]c2CCC23CC4CC(CC(C4)C2)C3)c1 (racemic) [Example 264, (±)-Acetylamino-(3-{[5-(2-adamantan-1-yl-ethyl)-2-cyclohexyl-1H-imidazole-4-carbonyl]-amino}-phenyl)-acetic Acid] |
| 1170 | Cc1ccccc1-c1nc(CCC23CC4CC(CC(C4)C2)C3)c(C=Cc2cccc(C(=O)O)c2)n1C [Example 276, 3-{2-[5-(2-Adamantan-1-yl-ethyl)-3-methyl-2-o-tolyl-3H-imidazol-4-yl]-vinyl}-benzoic Acid] |
| 115 | Cc1ccc(NC(=O)c2nc(C3CCCCC3)[nH]c2COCC23CC4CC(CC(C4)C2)C3)cc1C(=O)O [Example 310, 5-{[5-(Adamantan-1-ylmethoxymethyl)-2-cyclohexyl-1H-imidazole-4-carbonyl]-amino}-2-methyl-benzoic Acid] |
| 204 | O=C(O)CCc1cccc(NC(=O)c2nc(C3CCCCC3)[nH]c2CCC23CC4CC(CC(C4)C2)C3)c1 [Example 258, 3-(3-{[5-(2-Adamantan-1-yl-ethyl)-2-cyclohexyl-1H-imidazole-4-carbonyl]-amino}-phenyl)-propionic Acid Trifluoroacetic Acid Salt] |
| 708 | CC(C)(C(=O)O)c1cccc(NC(=O)c2nc(C3CCCCC3)[nH]c2CCC23CC4CC(CC(C4)C2)C3)c1 [Example 256, 2-(3-{[5-(2-Adamantan-1-yl-ethyl)-2-cyclohexyl-1H-imidazole-4-carbonyl]-amino}-phenyl)-2-methyl-propionic Acid] |
| 148 | CC(=O)NC(Cc1cccc(NC(=O)c2nc(C3CCCCC3)[nH]c2CCC23CC4CC(CC(C4)C2)C3)c1)C(=O)O (racemic) [Example 265, (±)-2-Acetylamino-3-(3-{[5-(2-adamantan-1-yl-ethyl)-2-cyclohexyl-1H-imidazole-4-carbonyl]-amino}-phenyl)-propionic Acid] |
| 112 | O=C(O)CC(=O)Nc1cccc(NC(=O)c2nc(C3CCCCC3)[nH]c2CCC23CC4CC(CC(C4)C2)C3)c1 [Example 267, N-(3-{[5-(2-Adamantan-1-yl-ethyl)-2-cyclohexyl-1H-imidazole-4-carbonyl]-amino}-phenyl)-malonamic Acid] |
| 2090 | Cc1ccccc1-c1nc(C(=O)Oc2cccc(C(=O)O)c2)c(CCC23CC4CC(CC(C4)C2)C3)[nH]1 [Example 281, 5-(2-Adamantan-1-yl-ethyl)-2-o-tolyl-1H-imidazole-4-carboxylic Acid 3-carboxy-phenyl Ester] |

The remaining lines, values behind:

| Compound | Kb [nM] |
| --- | --- |
| Cc1cc(C)c(-c2nc(C(=O)Nc3ccc(F)c(C(=O)O)c3)c(CCC34CC5CC(CC(C5)C3)C4)[nH]2)c(C)n1 [Example 184, 5-{[5-(2-Adamantan-1-yl-ethyl)-2-(2,4,6-trimethyl-pyridine-3-yl)-1H-imidazole-4-carbonyl]-amino}-2-fluoro-benzoic Acid] | 70.8 |
| Cc1ccc(NC(=O)c2nc(C3CCCCC3)[nH]c2CCC23CCC(CC2)CC3)cc1C(=O)O [Example 176, 5-{[5-(2-Bicyclo[2.2.2]oct-1-yl-ethyl)-2-cyclohexyl-1H-imidazole-4-carbonyl]-amino}-2-methyl-benzoic Acid] | 6.61 |
| COCC1(c2nc(C(=O)Nc3cccc(C(=O)O)c3)c(CCC34CC5CC(CC(C5)C3)C4)[nH]2)CCCCC1 [Example 203, 3-{[5-(2-Adamantan-1-yl-ethyl)-2-(1-methoxymethyl-cyclohexyl)-1H-imidazole-4-carbonyl]-amino}-benzoic Acid] | 11.7 |
| COCC(COC)c1nc(C(=O)Nc2cccc(C(=O)O)c2)c(CCC23CC4CC(CC(C4)C2)C3)[nH]1 [Example 189, 3-{[5-(2-Adamantan-1-yl-ethyl)-2-(2-methoxy-1-methoxymethyl-ethyl)-1H-imidazole-4-carbonyl]-amino}-benzoic Acid] | 61.7 |
| Cn1c(C2CCCCC2)nc(C(=O)Nc2cccc(C(=O)O)c2)c1CCC12CC3CC(CC(C3)C1)C2 [Example 214, 3-{[5-(2-Adamantan-1-yl-ethyl)-2-cyclohexyl-1-methyl-1H-imidazole-4-carbonyl]-amino}-benzoic Acid] | 10.2 |
| O=C(O)c1cc(NC(=O)c2nc(C34CCC(CC3)CC4)[nH]c2CCC23CC4CC(CC(C4)C2)C3)ccc1F [Example 213, 5-{[5-(2-Adamantan-1-yl-ethyl)-2-bicyclo[2.2.2]oct-1-yl-1H-imidazole-4-carbonyl]-amino}-2-fluoro-benzoic Acid] | 75.9 |
| Cc1cc(C)c(-c2nc(C(=O)Nc3cccc(C(=O)O)c3)c(CCC34CC5CC(CC(C5)C3)C4)[nH]2)c(C)n1 [Example 182, 3-{[5-(2-Adamantan-1-yl-ethyl)-2-(2,4,6-trimethyl-pyridine-3-yl)-1H-imidazole-4-carbonyl]-amino}-benzoic Acid] | 51.3 |
| O=C(O)c1cccc(NC(=O)c2nc(C3C4CCCC3CCC4)[nH]c2CCC23CC4CC(CC(C4)C2)C3)c1 (stereo not drawn) [Example 208, 3-([5-(2-Adamantan-1-yl-ethyl)-2-bicyclo[3.3.1]non-9-yl-1H-imidazole-4-carbonyl]-amino}-benzoic Acid] | 3.47 |
| O=C(O)c1cccc(NC(=O)c2nc(C3CCCCC3)[nH]c2CCC23CCC(CC2)CC3)c1 [Example 175, 3-{[5-(2-Bicyclo[2.2.2]oct-1-yl-ethyl)-2-cyclohexyl-1H-imidazole-4-carbonyl]-amino}-benzoic Acid] | 2.95 |
| O=C(O)c1cccc(NC(=O)c2[nH]c(C34CCC(CC3)CC4)nc2CCC23CC4CC(CC(C4)C2)C3)c1 [Example 212, 3-{[5-(2-Adamantan-1-yl-ethyl)-2-bicyclo[2.2.2]oct-1-yl-1H-imidazole-4-carbonyl]-amino}-benzoic Acid] | 2.45 |
| Cc1cc(C)c(-c2nc(C(=O)Nc3ccc(F)c(C(=O)O)c3)c(CCC34CC5CC(CC(C5)C3)C4)[nH]2)c(C)c1 [Example 156, 5-{[5-(2-Adamantan-1-yl-ethyl)-2-(2,4,6-trimethyl-phenyl)-1H-imidazole-4-carbonyl]-amino}-2-fluoro-benzoic Acid] | 63.1 |
| CC1(C)C2CC[C@@]1(C)C(c1nc(C(=O)Nc3cccc(C(=O)O)c3)c(CCC34CC5CC(CC(C5)C3)C4)[nH]1)C2 (mixture of isomers) [Example 206, 3-{[5-(2-Adamantan-1-yl-ethyl)-2-[(1S,2RS)-1,7,7-trimethyl-bicyclo[2.2.1]hept-2-yl]-1H-imidazole-4-carbonyl]-amino}-benzoic Acid] | 263 |
